The values below are quoted from earlier work in patent publication US20170007630A1, “COMPOSITION AND METHOD OF DELIVERY OF L-ARABINOSE AND SELECT COMPOUNDS” (priority 2011, published 2017).

The target of series [1] is T1, sucrase (Homo sapiens, UniProt P14410). As to conditions: compared with sucrose.
The conditions of series [2]: one study conducted in China.
The target in series [3] is T1, sucrase.

T1 sequence (P14410 whole entry): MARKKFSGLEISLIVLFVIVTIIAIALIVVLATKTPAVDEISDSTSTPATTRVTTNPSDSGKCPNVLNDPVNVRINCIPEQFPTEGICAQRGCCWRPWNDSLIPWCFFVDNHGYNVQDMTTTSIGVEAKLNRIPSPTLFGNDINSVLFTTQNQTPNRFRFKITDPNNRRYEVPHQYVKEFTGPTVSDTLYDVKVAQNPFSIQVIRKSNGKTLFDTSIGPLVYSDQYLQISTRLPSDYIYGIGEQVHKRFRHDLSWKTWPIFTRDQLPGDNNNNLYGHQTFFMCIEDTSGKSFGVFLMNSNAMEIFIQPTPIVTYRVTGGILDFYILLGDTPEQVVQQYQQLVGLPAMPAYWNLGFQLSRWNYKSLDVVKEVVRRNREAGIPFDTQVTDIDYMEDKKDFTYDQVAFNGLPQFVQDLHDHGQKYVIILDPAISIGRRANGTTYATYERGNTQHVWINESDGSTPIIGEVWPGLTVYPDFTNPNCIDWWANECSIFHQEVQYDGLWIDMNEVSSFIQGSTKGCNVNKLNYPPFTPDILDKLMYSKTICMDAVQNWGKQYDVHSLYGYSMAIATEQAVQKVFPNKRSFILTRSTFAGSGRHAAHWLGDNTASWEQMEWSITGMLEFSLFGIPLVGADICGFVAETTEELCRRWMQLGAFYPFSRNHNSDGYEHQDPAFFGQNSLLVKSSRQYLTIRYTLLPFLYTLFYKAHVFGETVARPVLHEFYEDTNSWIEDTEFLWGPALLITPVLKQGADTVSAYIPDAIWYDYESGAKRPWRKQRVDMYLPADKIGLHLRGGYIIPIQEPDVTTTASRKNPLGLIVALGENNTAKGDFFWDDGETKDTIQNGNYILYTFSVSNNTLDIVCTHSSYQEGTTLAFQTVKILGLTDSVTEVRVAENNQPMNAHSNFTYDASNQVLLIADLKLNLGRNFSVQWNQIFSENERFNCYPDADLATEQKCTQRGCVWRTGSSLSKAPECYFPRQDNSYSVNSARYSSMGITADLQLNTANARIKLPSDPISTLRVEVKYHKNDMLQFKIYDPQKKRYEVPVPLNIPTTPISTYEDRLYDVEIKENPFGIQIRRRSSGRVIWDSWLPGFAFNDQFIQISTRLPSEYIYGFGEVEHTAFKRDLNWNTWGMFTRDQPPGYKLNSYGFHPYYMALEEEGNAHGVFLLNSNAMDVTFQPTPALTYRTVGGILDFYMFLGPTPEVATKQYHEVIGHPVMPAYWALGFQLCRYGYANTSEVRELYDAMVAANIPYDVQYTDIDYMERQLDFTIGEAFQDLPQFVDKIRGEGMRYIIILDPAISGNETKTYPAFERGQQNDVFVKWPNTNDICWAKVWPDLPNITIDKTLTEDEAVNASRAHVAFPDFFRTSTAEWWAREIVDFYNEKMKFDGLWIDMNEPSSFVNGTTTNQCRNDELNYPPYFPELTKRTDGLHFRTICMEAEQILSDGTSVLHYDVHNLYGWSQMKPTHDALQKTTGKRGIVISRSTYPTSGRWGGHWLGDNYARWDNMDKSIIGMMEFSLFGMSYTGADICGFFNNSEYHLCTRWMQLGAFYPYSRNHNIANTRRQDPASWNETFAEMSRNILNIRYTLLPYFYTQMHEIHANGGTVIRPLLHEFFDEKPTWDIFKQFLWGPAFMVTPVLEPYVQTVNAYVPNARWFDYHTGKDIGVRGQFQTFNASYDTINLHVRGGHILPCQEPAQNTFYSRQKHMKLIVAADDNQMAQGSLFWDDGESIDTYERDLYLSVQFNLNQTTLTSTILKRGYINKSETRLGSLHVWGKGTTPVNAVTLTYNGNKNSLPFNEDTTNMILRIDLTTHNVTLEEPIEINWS

Take `O=C[C@H](O)[C@@H](O)[C@@H](O)CO` [L-arabinose]: in series [1], the “affinity to sucrase relative to sucrose” value is on record as “approximately 5 times”. In addition, in series [2], the “participants that experienced discomforts such as loose bowel or diarrhea” value was “about 40%”. In addition, in series [3], the “parts of sucrose inhibited from breakdown per one part of L-arabinose” value is given as “up to 20 parts”.
